# Measurements published in patent US20080271210A1, “Oryza Sativa Lectin-Like Receptor Kinase 1 (Oslrk1), a Gene Involved in Plant Development” (Temasek Life Sciences Laboratory National University of …, priority 2004, published 2008).
# Columns and labels:
# [1] = test system: Oslrk1 mutant seeds and seedlings; experiment: Germination and growth of Oslrk1 mutant seeds in galactose/mannose containing media; type: in vivo, Oryza sativa; details: for behavior of the mutant compared with the WT upon treatment: sugar 0.1% to 1% along with Suc
# Source text: (§1) The altered expression of the Oslrk1 by different sugars described above led us to study the response of the mutant to these monosaccharides and sucrose. The WT and the mutant seeds were germinated and grown in Gal, Man, Glu, Fm along with Suc at different concentrations (ranging from 0.1% to 1%) and Suc alone containing medium as a control. The following parameters were taken into account during observation: the shoot length, the number and the length of adventitious roots and the germination rate. […] Out of these three sugars tested, Man was selected as an example as its inhibitory effect was similar in seeds and seedlings of WT and mutant as shown in FIGS. 10A and B. The seed germination was severely affected by Man.
# (§2) At 1.0% of the Gal, the shoot length decreased by half in the mutant, whereas only by 15% in the WT seedlings. […] Apart from this, the germination rate of the WT seeds dropped to 85% whereas in the mutant it dropped to 30%.
# (§3) Germination of WT and mutant seeds in galactose/mannose containing media. WT and mutant seeds were germinated separately on MS medium containing 0.8% agar and 1% sucrose. In addition, D(+)galactose/D(+/−)mannose was added in different concentrations (0.1, 0.2, 0.5, and 1.0%) along with a control (MS with 1% of sucrose). At 14 days after germination, the observations for adventitious root number and length (cm), shoot length (cm) and germination rate (%) were recorded.
# [2] = test system: WT seeds and seedlings; experiment: Germination and growth of WT seeds in galactose/mannose containing media; type: in vivo, Oryza sativa
# Source text: as §1, §2, §3
# [3] = test system: Oslrk4; experiment: RT-PCR of Oslrks in treated 2 week-old seedlings; type: in vivo, Oryza sativa; details: treated vs control
# Procedure: (§4) RT-PCRs were carried out on RNA samples isolated from 2 week-old seedlings treated with various sugar (FIG. 13), hormone (FIG. 14), and abiotic stresses (FIG. 15) using primers designated to either 3′ or 5′ Untranslated Regions (UTRs) of the 15 Oslrks found in Table 2. For each Oslrk two lanes in the gel are found, the first lane is the control and the second one treatment samples.
# (§5) Table 3 provides a summary of all the above referenced data on the Oslrks, showing the RT-PCR results of various treatments, including sugar, hormone and abiotic stress and northern blot results on various tissues of rice plant grown in normal conditions, and the ESTs, or cDNAs availability in the database. In the table, “I” represents induced expression and “R” represents repressed expression.
# [4] = test system: Oslrk8; experiment: RT-PCR of Oslrks in treated 2 week-old seedlings; type: in vivo, Oryza sativa; details: treated vs control
# Procedure: as §4, §5
# [5] = test system: Oslrk5; experiment: RT-PCR of Oslrks in treated 2 week-old seedlings; type: in vivo, Oryza sativa; details: treated vs control
# Procedure: as §4, §5
# [6] = test system: Oslrk11; experiment: RT-PCR of Oslrks in treated 2 week-old seedlings; type: in vivo, Oryza sativa; details: treated vs control
# Procedure: as §4, §5
# [7] = test system: Oslrk1 mutant seedlings; experiment: Growth of Oslrk1 mutant seedlings in MeJA or GA3 containing medium; type: in vivo, Oryza sativa
# Procedure: (§6) In order to study the effect of phytohormones on the Oslrk1 mutant, seeds were grown in medium containing different concentrations of either MeJA ([…]) (FIG. 9A) or GA3 (0.5, 1, 5 and 10 μm) (data not shown) along with WT as a control The number and length of adventitious roots, number of lateral roots and shoot length were measured. […] In the WT seedlings the number of the lateral roots was increased at 5 uM and decreased by at 10 uM.
# (§7) The adventitious root length of WT increased by 50% at 10 uM concentration of GA3, but it was not altered in the mutant (data not shown).
# (§8) Plant Growth Conditions. Surface sterilized rice seeds were germinated and grown in cell culture containers (Phytatray II Sigma cell culture, USA) on 0.8% agar MS medium (Murashige and Skoog medium, Sigma., St. Louis Mo., USA) containing 1% of Suc for 2 weeks under 16/8 hours photoperiod. All chemicals used for the various treatments were purchased from Sigma.
# (§9) Growth of WT and Mutant Seedlings in MeJA Containing Medium WT and mutant seeds were germinated and grown in MS medium (1% Suc) containing different concentrations of MeJA (1 μM, 5 μM, and 10 μM) for two weeks. No MeJA was added in the control. The number and length (cm) of adventitious roots as well as the number of lateral roots were measured.
# [8] = test system: WT seedlings; experiment: Growth of WT seedlings in MeJA or GA3 containing medium; type: in vivo, Oryza sativa
# Procedure: as §6, §7, §8, §9
# [9] = test system: Oslrk1 gene; experiment: Northern-blot of Oslrk1 transcript in WT seedlings treated with hormones and SA; type: in vivo, Oryza sativa; details: for Oslrk1 gene expression repressed by: 3' UTR probe, vs untreated
# Source text: Differential Regulation of Oslrk1 Gene Expression by Hormones. Receptor-like kinases were postulated to be involved in signal transduction events as they perceive a signal via a ligand-binding extracellular domain and transmit it through the serine/threonine kinase domain into the cytosol (Shiu and Bleecker, 2001). In order to know possible factors influencing the Oslrk1 gene regulation, we analyzed promoter of the Oslrk1 (1.5 kb) for the presence of cis-acting elements using the program PlantCARE (Lescot et al., 2002). Three TGAGC motifs observed in MeJA inducible genes were found in promoter of the Oslrk1 at the positions −186, −657 and −1190. Apart from these, three GA3 inducible motifs (P-box-CCTTxt) −101, −206 and −740 bp upstream of the Oslrk1 ORF were located. In addition, five salicylic acid inducible motifs (TCA-elementcAGAAa/ga) at the positions of −321, −601, −604, −855 and −1135 were detected. The presence of MeJA, GA and SA responsive cis-elements in the Oslrk1 promoter indicated possible regulatory roles of these factors. The promoter analysis led us to study the effect of different hormones and compounds on the Oslrk1 transcription. The WT seeds were germinated for […] then seedlings were transferred to the medium containing one of the following chemicals: […], MeJA, GA3 or ABA at concentration 100 uM and SA (5 mM) for 24 hours (Materials and Methods). The total RNA isolated from the untreated and treated seedlings were used in Northern-blot hybridization using 3′ UTR of the Oslrk1 gene as a probe. The treatment with GA3 and SA repressed the Oslrk1 gene expression (FIG. 8A) by 2.5 and 3.3 times respectively. […] In order to confirm the level of induction of the Oslrk1 gene by MeJA over time, in another series of experiments, a time course was performed after hormone treatment. Seven day old seedlings were sprayed with 100 uM of MeJA solution and they were harvested in 1, 2, 4, 6, 8, and 12 hours.
# RNA Isolation and Northern-blot Analysis. RNA was isolated from different organs of rice plant at different developmental stages (roots of 10-14 days old seedlings and 2 months old plants, 10-14 days old seedlings, young and mature leaves, panicles at the flowering stage and calli) using a RNeasy Plant mini kit (Qiagen,). The RNA (10 ug) was fractionated on a 1.2% denaturating formaldehyde agarose gel and transferred onto a Hybond-N^+ membrane (Amersham). The bolts were hybridized with dogoxigenin (DIG)-labeled probes in DIG Easy Hyb solution (Roche) at 50° C. After hybridization, membranes were washed twice with 2×SSC and 0.1% SDS for 15 min, then twice with 0.5×SSC and 0.1% SDS for 15 min at 68° C. Detection was carried out according to manufacturer using DIG Wash and Block Buffer set and chemiluminescent substrate CDP Star™ (Roche). DIG-labelled probe corresponded to 3′UTR and lectin domain of Oslrk1 was used. For the control of RNA quantity, DIG-probe corresponding to rice Actin1 gene was synthesized using the following primers: […]
# (§10) The RT-PCRs and Northern blots were repeated at least thrice and similar results were obtained. The quantification of the intensity of the hybridization signals was performed using Quantity ONE 4.5.0 software in Gel doc XR documentation system (Bio-Rad Laboratories, Inc., USA). The level of actual expression was calculated as a ratio of intensity of specific signal (Oslrk1 3′UTR probe) to the intensity of signal of positive control (rice Act1).
# Treatment of WT Seedlings with Hormones and Sugars. Two week old WT seedlings were transferred to MS medium containing 100 μM of different hormones, such as Indole 3-Acetic Acid (IAA), Abscisic acid (ABA), Methyl Jasmonate (MeJA), or Gibbrellic Acid (GA3) and 5 mM of Salicylic Acid (SA), and were grown for 24 hours under normal day/light conditions. Total RNA was extracted from root of the seedlings and whole seedlings. […]
# [10] = test system: Oslrk1 gene; experiment: Northern-blot of Oslrk1 transcript in WT seedlings treated with sugars; type: in vivo, Oryza sativa; details: sugars 175 mM, 48 hours, Mannitol as osmotic control
# Procedure: Lectins are known as carbohydrate-binding proteins that specifically recognize diverse sugar structures (Vijayan and Chandra, 1999). […] Five different sugars: glucose (Glu), sucrose (Suc), fructose (Fm), Gal and Man were used for this study along with Mannitol as an osmotic control (Methods). Northern-blot hybridizations were carried out on the total RNA isolated from treated seedlings.
# RNA Isolation and Northern-blot Analysis. RNA was isolated from different organs of rice plant at different developmental stages (roots of 10-14 days old seedlings and 2 months old plants, 10-14 days old seedlings, young and mature leaves, panicles at the flowering stage and calli) using a RNeasy Plant mini kit (Qiagen,). […] For the control of RNA quantity, DIG-probe corresponding to rice Actin1 gene was synthesized using the following primers: […]
# as §10, with “Act1). […]” for “Act1).”
# [11] = test system: adventitious roots; details: rice, Moons et al., 1997; cited from earlier work
# [12] = test system: Oslrk10; experiment: RT-PCR of Oslrks in treated 2 week-old seedlings; type: in vivo, Oryza sativa; details: Rt, treated vs control
# Procedure: as §4, §5
# [13] = test system: Oslrk2; experiment: RT-PCR of Oslrks in treated 2 week-old seedlings; type: in vivo, Oryza sativa; details: treated vs control
# Procedure: as §4, §5
# [14] = GA3 10 uM, two weeks in MS agar
# [15] = seedlings sprayed with 100 uM, time course 1-12 hours
structure (smiles),measurement,setting,value
"O=C[C@@H](O)[C@@H](O)[C@H](O)[C@H](O)CO (racemic) [Man, mannose]","effect on any parameters tested (shoot length, number and length of adventitious roots, germination rate)","[1]; Oslrk1 mutant, mannose 0.1%",No obvious effect
same,seed germination rate,"[1]; Oslrk1 mutant, mannose 0.2%",35%
same,seed germination,"[1]; Oslrk1 mutant, mannose 0.5%",did not germinate
same,behavior of the mutant compared with the WT upon treatment,[1],No significant differences
same,"effect on any parameters tested (shoot length, number and length of adventitious roots, germination rate)",[2]; mannose 0.1%,No obvious effect
same,seed germination rate,[2]; mannose 0.2%,35%
same,seed germination,[2]; mannose 0.5%,did not germinate
same,"Oslrk4 expression by RT-PCR, Rt",[3],I
same,"Oslrk8 expression by RT-PCR, Rt",[4],I
same,"Oslrk5 expression by RT-PCR, Rt",[5],I
same,"Oslrk5 expression by RT-PCR, Sh",[5],R
same,"Oslrk11 expression by RT-PCR, Rt",[6],I
"O=C(CO)[C@@H](O)[C@H](O)[C@H](O)CO [Fm, fructose]",behavior of the mutant compared with the WT upon treatment,[1],No significant differences
"C=C1C[C@]23C[C@@]1(O)CC[C@H]2[C@@]12C=C[C@H](O)[C@@](C)(C(=O)O1)[C@H]2[C@@H]3C(=O)O [GA3, Gibbrellic Acid]",adventitious root length,[7]; [14],not altered
same,"Oslrk4 expression by RT-PCR, Rt",[3],I
same,"Oslrk8 expression by RT-PCR, Rt",[4],I
same,"Oslrk5 expression by RT-PCR, Rt",[5],I
same,"Oslrk11 expression by RT-PCR, Rt",[6],I
same,"Oslrk11 expression by RT-PCR, Sh",[6]; Sh,R
same,adventitious root length increased by,[8]; [14],50%
same,Oslrk1 gene expression repressed by,"[9]; 100 uM, 24 hours, WT seedlings",2.5 times
"O=C[C@H](O)[C@@H](O)[C@H](O)[C@H](O)CO [Glu, glucose]",behavior of the mutant compared with the WT upon treatment,[1],No significant differences
same,"Oslrk4 expression by RT-PCR, Rt",[3],I
same,"Oslrk4 expression by RT-PCR, Sh",[3],R
same,"Oslrk8 expression by RT-PCR, Rt",[4],I
same,"Oslrk8 expression by RT-PCR, Sh",[4]; Sh,R
OC[C@@H](O)[C@@H](O)[C@H](O)[C@H](O)CO [Mannitol],Oslrk1 expression in response to sugars,[10],not altered
"CC/C=C\CC1C(=O)CCC1CC(=O)OC (stereo not drawn) [MeJA, Methyl Jasmonate]",number of adventitious roots,[7]; MeJA 10 uM,opposite to the effect observed at 5 uM
same,number of lateral roots,"[7]; MeJA 1, 5, 10 uM",no significant changes
same,shoot length,"[7]; MeJA 1, 5, 10 uM, two weeks",decreased
same,number of adventitious roots,[7]; MeJA up to 5 uM,gradually increased
same,length of adventitious roots,[7]; MeJA up to 10 uM,not reduced significantly
same,concentration at which development of adventitious roots was inhibited,[11],more than 3 μM
same,"Oslrk4 expression by RT-PCR, Rt",[3],I
same,"Oslrk4 expression by RT-PCR, Sh",[3],R
same,"Oslrk5 expression by RT-PCR, Rt",[5],I
same,"Oslrk5 expression by RT-PCR, Sh",[5],R
same,number of the lateral roots,[8]; MeJA 5 uM,increased
same,number of adventitious roots,[8]; MeJA 10 uM,opposite to the effect observed at 5 uM
same,number of the lateral roots,[8]; MeJA 10 uM,decreased
same,reduction in length of adventitious roots,[8]; MeJA 10 uM,approximately 75%
same,shoot length,"[8]; MeJA 1, 5, 10 uM, two weeks",decreased
same,number of adventitious roots,[8]; MeJA up to 5 uM,gradually increased
same,"Oslrk1 transcript, intensity of the hybridization signal increased by","[9]; 100 uM, 24 hours, WT seedlings, compared to the control",3.2 times
same,maximum induction of Oslrk1 expression relative to untreated sample,[9]; [15],approximately 3 times
same,time of maximum Oslrk1 induction,[9]; [15],8 h
"O=C(O)c1ccccc1O [SA, Salicylic Acid]","Oslrk10 expression by RT-PCR, Rt",[12],I
same,"Oslrk4 expression by RT-PCR, Rt",[3],I
same,"Oslrk8 expression by RT-PCR, Rt",[4],I
same,"Oslrk5 expression by RT-PCR, Rt",[5],I
same,"Oslrk11 expression by RT-PCR, Rt",[6],I
same,Oslrk1 gene expression repressed by,"[9]; 5 mM, 24 hours, WT seedlings",3.3 times
"OC[C@H]1O[C@@](CO)(O[C@H]2O[C@H](CO)[C@@H](O)[C@H](O)[C@H]2O)[C@@H](O)[C@@H]1O [Suc, sucrose]","Oslrk5 expression by RT-PCR, Rt",[5],I
same,"Oslrk5 expression by RT-PCR, Sh",[5],I
same,"Oslrk2 expression by RT-PCR, Rt",[13]; Rt,I
same,"Oslrk2 expression by RT-PCR, Sh",[13]; Sh,R
same,"Oslrk11 expression by RT-PCR, Rt",[6],I
